Measured values as given in US20230060425A1, “FUSED BICYCLIC HETEROCYCLE DERIVATIVES AS PESTICIDES” (Bayer Aktiengesellschaft, priority 2019, published 2023).

Assays:
Assay type in all cases: in vivo
Spodoptera frugiperda = Spodoptera frugiperda spray test; conditions: foliar, 168 h, application rate 100 g/ha, maize leaf discs, after 7 days, read-out: efficacy
Description: Spodoptera frugiperda—Spray Test
Solvent: • 78.0 parts by weight of acetone • 1.5 parts by weight of dimethylformamide
(§1) Emulsifier: alkylaryl polyglycol ether
To produce further test concentrations, the formulation is diluted with emulsifier-containing water.
After 7 days, the efficacy in % is determined. 100% means that all the caterpillars have been killed; 0% means that no caterpillar has been killed.

Diabrotica balteata = Diabrotica balteata spray test; conditions: 168 h, application rate 160 μg/cavity (μg/well), wheat grains, after 7 days, read-out: efficacy
Description: Diabrotica balteata—Spray Test
(§2) Solvent: • 78 parts by weight of acetone • 1.5 parts by weight of dimethylformamide
as §1
(§3) To produce a suitable active compound preparation, 1 part by weight of active compound is dissolved using the stated parts by weight of solvent and made up with water containing an emulsifier concentration of 1000 ppm until the desired concentration is attained. To produce further test concentrations, the formulation is diluted with emulsifier-containing water.
Pre-swollen wheat grains (Triticum aestivum) are incubated in a multiwell plate filled with agar and a little water for one day (5 seed grains per well). The germinated wheat grains are sprayed with an active compound preparation of the desired concentration. Subsequently, each cavity is infected with 10-20 beetle larvae of Diabrotica balteata.
After 7 days, the efficacy in % is determined. 100% means that all wheat plants have grown as in the untreated, uninfected control; 0% means that no wheat plant has grown.

Myzus persicae [1] = experiment: Myzus persicae oral test; conditions: 120 h, application rate 4 ppm, after 5 days, read-out: efficacy
Description: Solvent: 100 parts by weight of acetone
To produce a suitable preparation of active compound, 1 part by weight of active compound is dissolved using the specified parts by weight of solvent and made up with water until the desired concentration is attained.
50 μl of the active compound preparation are transferred into microtitre plates and made up to a final volume of 200 μl with 150 μl of IPL41 insect medium (33%+15% sugar). Subsequently, the plates are sealed with parafilm, which a mixed population of green peach aphids (Myzus persicae) within a second microtitre plate is able to puncture and imbibe the solution through it.
(§4) After 5 days, the efficacy in % is determined. 100% means that all the aphids have been killed; 0% means that no aphids have been killed.

Myzus persicae [2] = experiment: Myzus persicae spray test; conditions: foliar, 120 h, application rate 100 g/ha, Chinese cabbage leaf discs, after 5 days, read-out: efficacy
Description: Myzus persicae—Spray Test
as §2, §1, §3
Discs of Chinese cabbage leaves (Brassica pekinensis) infested by all stages of the green peach aphid (Myzus persicae) are sprayed with an active compound formulation of the desired concentration.
as §4

SMILES	pest or weed control at 100 g/ha (Spodoptera frugiperda)	pest or weed control at 160 µg/well (Diabrotica balteata)	pest or weed control at 4 ppm (Myzus persicae [1])	pest or weed control at 100 g/ha (Myzus persicae [2])
CCS(=O)(=O)c1c(-c2nc3cc(S(=O)(=O)C(F)(F)F)cnc3n2C)ncc2cc(Br)ccc12 [Example I-016]	100%	100%	100%	–
CCS(=O)(=O)c1c(-c2nc3cc(C(F)(F)F)ncc3n2C)ncc2c(Br)cccc12 [Example I-018]	–	100%	100%	100%
CCS(=O)(=O)c1c(-c2nc3cc(C(F)(F)C(F)(F)F)ncc3n2C)ncc2c(Br)cccc12 [Example I-019]	100%	100%	100%	–
CCS(=O)(=O)c1c(-c2nc3cc(C(F)(F)F)nnc3n2C)ncc2cc(Br)ccc12 [Example I-028]	100%	80%	100%	90%
CCS(=O)(=O)c1c(-c2nc3cc(S(=O)(=O)C(F)(F)F)cnc3n2C)ncc2c(Br)cccc12 [Example I-029]	100%	100%	100%	90%
CCS(=O)(=O)c1c(-c2nc3cc(C(F)(F)C(F)(F)F)cnc3n2C)ncc2c(C#N)cccc12 [Example I-030]	100%	100%	100%	–
CCS(=O)(=O)c1c(-c2nc3cc(C(F)(F)C(F)(F)F)cnc3n2C)ncc2c(Cl)cccc12 [Example I-031]	100%	100%	100%	–
CCS(=O)(=O)c1c(-c2nc3cc(C(F)(F)F)cnc3n2C)ncc2cc(OC)ccc12 [Example I-033]	100%	–	100%	–
CCS(=O)(=O)c1c(-c2nc3cc(C(F)(F)F)nnc3n2C)ncc2ccc(Cl)cc12 [Example I-039]	100%	100%	100%	–
CCS(=O)(=O)c1c(-c2nc3cc(C(F)(F)C(F)(F)F)nnc3n2C)ncc2cc(Br)ccc12 [Example I-043]	100%	100%	100%	90%
CCS(=O)(=O)c1c(-c2nc3cc(C(F)(F)F)nnc3n2C)ncc2ccc(C)cc12 [Example I-044]	–	100%	100%	90%
CCS(=O)(=O)c1c(-c2nc3cc(C(F)(F)C(F)(F)F)nnc3n2C)ncc2c(Br)cccc12 [Example I-046]	100%	100%	100%	–
CCS(=O)(=O)c1c(-c2nc3cc(C(F)(F)C(F)(F)F)cnc3n2C)ncc2cc(OCC(F)(F)F)ccc12 [Example I-048]	100%	100%	–	–
CCS(=O)(=O)c1c(-c2nc3cc(C(F)(F)C(F)(F)F)cnc3n2C)ncc2cc(OCC(F)F)ccc12 [Example I-049]	100%	80%	–	–
CCS(=O)(=O)c1c(-c2nc3cc(C(F)(F)C(F)(F)F)cnc3n2C)ncc2cc(C3CC3)ccc12 [Example I-050]	100%	100%	90%	–
CCS(=O)(=O)c1c(-c2nc3cc(C(F)(F)C(F)(F)F)nnc3n2C)ncc2cc(C#N)ccc12 [Example I-051]	100%	100%	100%	–
CCS(=O)(=O)c1c(-c2nc3cc(C(F)(F)C(F)(F)F)nnc3n2C)ncc2c(Cl)cccc12 [Example I-052]	100%	100%	100%	–
CCS(=O)(=O)c1c(-c2nc3cc(C(F)(F)C(F)(F)F)cnc3n2C)ncc2cc(OCC(C)(F)F)ccc12 [Example I-053]	100%	100%	–	–
